The values that follow come from ChEMBL document CHEMBL1201862, “PubChem BioAssay data set” (2004).

Molecules are shown by their SMILES. The source made the active and inactive calls. Where only a bound is given, the exact number is not on record here.

Assay [1] has as its target Nuclear receptor subfamily 5 group A member 2 (Homo sapiens, UniProt O00482). The class given is functional, cell-based.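 Also: HEK293T cells transfected with LRH-1 and a StAR promoter luciferase reporter; potency for inhibitors that lower LRH-1 driven reporter light.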
In assay [2] the target is Steroidogenic factor 1 (Homo sapiens, UniProt Q13285). Briefly: Counterscreen for inverse agonists of the liver receptor homolog-1 (LRH-1; NR5A2): Luminescence-based cell-based high throughput dose response assay to identify inverse agonists of the Steroidogenic Factor 1 Nuclear Receptor (SF1; NR5A1). The class given is functional. A general note: A counterscreen serves to expose hits that act by an unwanted route or on another target.

Assay [3] in a line: StAR promoter reporter inhibition counter-screen, dose response, counter-screen for LRH-1 inverse agonist project, cell-based, luminescence, luciferase reporter (AID 651969). Format: functional.
Assay [4] in a line: inhibitors of intracellular T. cruzi replication, confirmation, NIH3T3 host cells, beta-gal luminescence (AID 2044).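 Also: intracellular parasites grown in NIH/3T3 mouse fibroblasts as host cells; luminescent beta-galactosidase reporter signal from transgenic T. cruzi replicating inside host cells; inhibitors lower the luminescence signal.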 The class given is functional, cell-based.
The nature of assay [5]: cytotoxicity toward NIH3T3 fibroblasts, dose response, counter-screen, cell-based, ATP luminescence, mouse fibroblasts (AID 2010).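 Also: cells exposed to compound for about 90 hours before reading.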 Format: functional.
Assay [6] deals with T1, Probable nicotinate-nucleotide adenylyltransferase (Staphylococcus aureus (strain N315), UniProt P65502). The class given is functional, Staphylococcus aureus subsp. aureus N315.
Assay [7] addresses T1, Probable nicotinate-nucleotide adenylyltransferase. Format: functional, Staphylococcus aureus subsp. aureus N315. Conditions: read-out: IC50_Mean.
Assay [8] deals with Beta-lactamase (Salmonella choleraesuis (strain SC-B67), UniProt Q5J463). The assay can be described thus: Epi-absorbance-based counterscreen for selective VIM-2 inhibitors: dose response biochemical high throughput screening assay to identify inhibitors of TEM-1 serine-beta-lactamase.
The target in assay [9] is T2, Beta-lactamase (Pseudomonas aeruginosa, UniProt Q79MP6). Briefly: IMP-1 metallo-beta-lactamase inhibitors, dose response, selectivity assay for VIM-2 inhibitor project, biochemical, epi-absorbance (AID 1920).
The target of assay [10] is T3, Beta Lactamase (Pseudomonas aeruginosa, UniProt Q932Y6). The assay can be described thus: VIM-2 metallo-beta-lactamase inhibitor potency, dose response, biochemical, epi-absorbance readout, selective inhibitors (AID 1919).
For assay [11], the target named is T2, Beta-lactamase. The assay can be described thus: […] counterscreen for selective VIM-2 inhibitors: dose response biochemical high throughput screening assay to identify inhibitors of IMP-1 metallo-beta-lactamase.
For assay [12], the target named is T3, Beta Lactamase. Briefly: VIM-2 inhibitor FRET-based artefact check, dose response, artefact control for selective VIM-2 inhibitor project, biochemical, FRET readout, CCF2 substrate (AID 1926).
In assay [13] the target is T4, Low molecular weight phosphotyrosine protein phosphatase (Homo sapiens, UniProt P24666).
T4 sequence (P24666 whole entry): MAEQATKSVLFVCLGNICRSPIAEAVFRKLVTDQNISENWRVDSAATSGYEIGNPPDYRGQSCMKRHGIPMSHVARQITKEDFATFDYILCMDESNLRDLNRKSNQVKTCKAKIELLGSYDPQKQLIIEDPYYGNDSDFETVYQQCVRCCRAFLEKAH
The class given is functional. As to conditions: read-out: IC50_Mean.

The target in assay [14] is T4, Low molecular weight phosphotyrosine protein phosphatase. The class given is functional. Conditions: read-out: IC50_Mean. The source holds these as a separate data set.
Assay [15] in a line: NIH/3T3 fibroblast cytotoxicity, dose response, cytotoxicity control for T. cruzi growth inhibitor project, cell-based, cherry-pick samples, set 2 (AID 651817). Format: functional. Conditions: NIH3T3.

A word on the EC50: it is the concentration needed to bring the measured effect to its halfway point. One may read the AC50 as the midpoint of the concentration-response curve, whichever way the signal moves.

T1 sequence (P65502 whole entry): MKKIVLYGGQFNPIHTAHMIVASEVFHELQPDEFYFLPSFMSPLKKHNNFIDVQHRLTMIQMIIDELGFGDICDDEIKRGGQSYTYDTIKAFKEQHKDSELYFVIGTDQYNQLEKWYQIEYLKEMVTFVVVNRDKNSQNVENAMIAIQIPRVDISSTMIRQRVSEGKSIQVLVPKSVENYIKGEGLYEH
T2 sequence (Q79MP6 whole entry): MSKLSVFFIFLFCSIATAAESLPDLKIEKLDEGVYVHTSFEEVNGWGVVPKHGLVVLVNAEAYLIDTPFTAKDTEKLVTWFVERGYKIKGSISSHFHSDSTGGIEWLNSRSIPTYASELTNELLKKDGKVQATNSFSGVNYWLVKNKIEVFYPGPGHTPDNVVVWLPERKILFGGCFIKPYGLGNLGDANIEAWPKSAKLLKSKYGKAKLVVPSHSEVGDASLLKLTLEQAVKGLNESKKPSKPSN
T3 sequence (Q932Y6 whole entry): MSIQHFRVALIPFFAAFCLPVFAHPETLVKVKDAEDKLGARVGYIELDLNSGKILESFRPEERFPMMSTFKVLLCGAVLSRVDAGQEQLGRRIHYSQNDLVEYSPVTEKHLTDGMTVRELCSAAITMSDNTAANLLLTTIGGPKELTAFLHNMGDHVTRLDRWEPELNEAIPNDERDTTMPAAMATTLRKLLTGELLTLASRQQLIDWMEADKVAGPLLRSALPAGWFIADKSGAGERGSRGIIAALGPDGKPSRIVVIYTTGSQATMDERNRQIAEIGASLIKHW
Sequence of Beta-lactamase (Salmonella choleraesuis (strain SC-B67), UniProt Q5J463) (Q5J463 whole entry): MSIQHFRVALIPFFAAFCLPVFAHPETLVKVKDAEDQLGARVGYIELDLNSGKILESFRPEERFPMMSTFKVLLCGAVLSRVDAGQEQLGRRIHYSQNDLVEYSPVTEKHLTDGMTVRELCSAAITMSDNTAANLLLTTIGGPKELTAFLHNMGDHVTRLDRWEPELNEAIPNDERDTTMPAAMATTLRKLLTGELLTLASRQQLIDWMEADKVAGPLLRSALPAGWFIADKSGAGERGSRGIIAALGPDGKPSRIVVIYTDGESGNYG
Sequence of Nuclear receptor subfamily 5 group A member 2 (O00482 whole entry): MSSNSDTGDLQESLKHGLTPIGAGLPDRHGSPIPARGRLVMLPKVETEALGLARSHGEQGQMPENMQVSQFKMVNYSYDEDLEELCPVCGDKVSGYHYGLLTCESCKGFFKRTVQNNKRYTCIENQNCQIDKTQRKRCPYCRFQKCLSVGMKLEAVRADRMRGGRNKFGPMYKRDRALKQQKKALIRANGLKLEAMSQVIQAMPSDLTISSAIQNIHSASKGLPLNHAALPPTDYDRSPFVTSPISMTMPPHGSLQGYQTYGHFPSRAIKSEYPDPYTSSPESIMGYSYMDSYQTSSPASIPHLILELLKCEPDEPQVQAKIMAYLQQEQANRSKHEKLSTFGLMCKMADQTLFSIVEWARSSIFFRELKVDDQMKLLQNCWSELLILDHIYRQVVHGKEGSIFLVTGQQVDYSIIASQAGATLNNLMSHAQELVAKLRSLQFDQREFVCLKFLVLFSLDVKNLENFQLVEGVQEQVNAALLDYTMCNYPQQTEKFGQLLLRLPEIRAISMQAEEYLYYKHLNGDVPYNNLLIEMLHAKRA
Sequence of Steroidogenic factor 1 (Q13285 whole entry): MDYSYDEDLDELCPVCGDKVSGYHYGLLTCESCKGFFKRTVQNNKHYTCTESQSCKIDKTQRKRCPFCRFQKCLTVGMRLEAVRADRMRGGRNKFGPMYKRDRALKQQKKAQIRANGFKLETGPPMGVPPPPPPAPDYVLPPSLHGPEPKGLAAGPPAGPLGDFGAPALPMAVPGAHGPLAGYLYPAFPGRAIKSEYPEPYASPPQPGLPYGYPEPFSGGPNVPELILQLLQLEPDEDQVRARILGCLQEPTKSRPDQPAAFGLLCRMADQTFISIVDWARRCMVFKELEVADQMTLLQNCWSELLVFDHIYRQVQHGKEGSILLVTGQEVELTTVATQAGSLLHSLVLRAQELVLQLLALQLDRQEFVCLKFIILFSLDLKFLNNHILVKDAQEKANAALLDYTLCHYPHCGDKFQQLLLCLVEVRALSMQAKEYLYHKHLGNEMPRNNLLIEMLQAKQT

For `CC(=O)Nc1ccc(NC(=O)COC(=O)Cc2c[nH]c3ccccc23)cc1`, the IC50 in assay [1] is 2.64 µM (active); in assay [2], 2.07 µM (active); in assay [3], 35.9 µM (inactive).
As to `COc1ccc(-c2cc(C(=O)Nc3cccc(S(=O)(=O)NCc4ccco4)c3)c3ccccc3n2)cc1OC`, the EC50 is 1.64 µM (active) in [4] and > 60 µM (not active) in assay [5]. Besides, the results for the IC50 in [6] and in assay [7] were 13.8 µM (active) and 25.3 µM (active), respectively.
As for `O=C(C1=C(O)C(=O)N(Cc2cccnc2)C1c1ccccn1)c1ccc(F)cc1` (stereo not given), the IC50 in assay [8] was > 59.6 µM (inactive); in [9] it was > 59.6 µM (inactive); in assay [10] it was 2.42 µM (active); in [11] it was > 59.6 µM (inactive); in [12] it was 0.941 µM (active).
On to `O=C1C(=Cc2cn(-c3ccccc3)nc2-c2ccc(OCc3ccc(Cl)cc3)cc2)SC(=S)N1CCS(=O)(=O)O`, for which the IC50 is 7.21 µM (active) in assay [13] and 1.35 µM (active) in assay [14].
As to `C[C@@H]1CN([C@H](C)CO)C(=O)Cc2cc(NS(=O)(=O)c3ccc(Cl)cc3)ccc2O[C@H]1CN(C)S(=O)(=O)c1ccc(Cl)cc1`, in assay [15], the AC50 is 16.9 µM (active).
